The values below come from patent US10499648B2, “Sterilization method, formulation for sterilization use, and device for producing sterilizing liquid” (priority 2014, dated 2019).

For data set [1], the system named is Escherichia coli. Briefly: Sterilization effect of synthesized peroxynitric acid on Escherichia coli (FIG. 8). The data set is classed as cell-based. The note with it: peroxynitric acid approximately 0.02 mM or higher; pH 3.5; 25° C.; from 7 orders to 2 orders or less (detection limit). On the procedure: In FIGS. 8, 9, and 11, solution of peroxynitric acid has a pH value of 3.5 and a temperature of 25° C. In the heat treatment of FIG. 10, the solution of peroxynitric acid is heated for thirty minutes to have a temperature of 60° C.
(§1) In this experiment, the detection limit was reached when the number of living microorganisms was in 2 orders of magnitude or less, then further sterilization effect was not measured. Thus, if the concentration of the synthesized peroxynitric acid is further increased, the number of living microorganisms is expected to be further reduced. In the experiment, diluted solution of the synthesized peroxynitric acid was used. If undiluted solution is used, more powerful microbicidal activity is expected to be exerted. The peroxynitric acid synthesized in the fourth embodiment has a concentration of 420 mM. For example, using undiluted solution of the synthesized peroxynitric acid probably lowers the number of living microorganisms to further […] of magnitude or more.

The subject of data set [2] is Bacillus subtilis spore. The data set is described as follows: Sterilization effect of synthesized peroxynitric acid on Bacillus subtilis spore (FIGS. 9-11). The note with it: for drop of the number of living microorganisms in Bacillus subtilis spore: peroxynitric acid approximately 0.5 mM or higher, pH 3.5. Format: cell-based. On the procedure: Where the solution of the synthesized peroxynitric acid has a pH value of 3.5 and the peroxynitric acid has a concentration of approximately 0.5 mM or higher, the number of living microorganisms in Bacillus subtilis spore drops from 6 orders of magnitude to 2 orders of magnitude or less, which indicates a drop of 4 orders of magnitude or more.
as §1

Data set [3] in a line: Lifetime / decomposition of synthesized peroxynitric acid depending on temperature. Format: physicochemical. The note with it: solution at 0° C. From the text: The synthesis reaction of peroxynitric acid progresses also at a room temperature. To be specific, peroxynitric acid is synthesized at a room temperature; however, the lifetime of the synthesized peroxynitric acid depends on temperature. Where being saved at a room temperature, the synthesized peroxynitric acid is quickly decomposed to turn into nitric acid in a short time. When the temperature rises by 5 degrees, the rate of decomposition doubles. For example, the rate of decomposition at a temperature of 20° C. is 16 times as fast as that at a temperature of 0° C. (zero). Thus, the synthesized peroxynitric acid turns into nitric acid solution very quickly at a temperature of 50° C. The half-life of the peroxynitric acid is 10 minutes or so at a room temperature. The half-life of the peroxynitric acid is a few hours (2 to 3 hours or so) at a temperature of 0 (zero) degrees.
In order to preserve the solution with the biocidal activity maintained, it is preferable to set the temperature of the solution as low as possible. For example, the solution is adjusted to have a temperature of 0° C., which enables the solution to be stored/preserved for a couple of hours, for example, for 5 to 8 hours or so. Freezing the solution allow the solution to be preserved for a longer time.

A short description of data set [4]: Activation energy in decomposition response, compared with literature value. The data set is classed as physicochemical. On the procedure:
As for the substance corresponding to the retention time RT of 2.8 minutes shown in FIG. 5, an activation energy in decomposition response thereof was actually measured. The activation energy measured was compared to an activation energy in decomposition response of peroxynitric acid. The comparison result is provided as follows: • Actual measured value: 109 kJ/mol • Literature value: 110 kJ/mol • Both the values are in good accord with each other. Thereby, the substance corresponding to the retention time RT of 2.8 minutes is probably peroxynitric acid.
The activation energy in decomposition response herein was cited from the following document.
J. Phys. Chem. A 1997, 101, 8822-8829 “Peroxynitric Acid Decay Mechanisms and Kinetics at Low pH”.

Data set [5] can be described thus: Time needed for sterilization depending on solution temperature. The note with it: solution temperature 30° C. How it is done:
Where the solution has a temperature of 10° C. or lower, the solution may be applied to an object to be sterilized with the temperature remaining unchanged. It is also possible to raise the temperature of the solution to 20° C. or more at the time of application of the solution to the object to be sterilized. It is preferable for the solution to have a lower temperature in order to preserve peroxynitric acid, but at the same time, is preferable for the solution to have a certain level of high temperature for sterilization. To be specific, while the solution having a temperature of 0° C. needs time to sterilize the object, the solution having a temperature of 30° C. needs only 20 seconds to sufficiently sterilize the object. When the situation permits to take time to sterilize the object, it is preferable to perform sterilization at a low temperature. When quick sterilization is needed, it is preferable to raise the temperature, for example, to 30 through 40° C.

The nature of data set [6]: Sterilization effect after adding enzyme for disappearing superoxide anion radicals. From the text:
The peroxynitric acid in the solution is probably a precursor which produces the superoxide anion radicals (O2—.). The superoxide anion radicals (O2—.) are probably precursors which produce the hydroperoxy radicals (HOO.).

For data set [7] the following is noted: J. Phys. Chem. A 1997, 101, 8822-8829; cited from earlier work.
For data set [8] the following is noted: equilibrium O2-. + H+ <-> HOO.; cited from earlier work.

With peroxynitric acid, the “drop of the fungicidal concentration (number of living microorganisms) of Escherichia coli” value in data set [1] is no less than 5 orders. Besides, the “drop of the number of living microorganisms in Bacillus subtilis spore” value in data set [2] (FIG. 9, 25° C., from 6 orders to 2 orders or less (detection limit)) was no less than 4 orders; in data set [2] (FIG. 10), ≥ 4 orders of magnitude. For the same molecule, the “number of living microorganisms in Bacillus subtilis spore” value in data set [2] (FIG. 10, solution pH 6.5, stays in 6 orders of magnitude) is “approximately constant independently of the concentration of the peroxynitric acid”. For the same molecule, the “sterilization effect on Bacillus subtilis spore after heat treatment” value in data set [2] (FIG. 11, peroxynitric acid heated thirty minutes to 60° C., count stays in 6 orders of magnitude) was “disappearance of sterilization effect”. Moreover, the “time the solution can be stored/preserved with biocidal activity maintained” value in data set [3] lay within 5 to 8 h. In data set [4], the “activation energy in decomposition response, actual measured value” came to 26.1 kcal/mol. Further, in data set [5], the “time needed to sufficiently sterilize the object” value was found to be 20 s. For the same molecule, in data set [6], the “sterilization effect with enzyme for disappearing superoxide anion radicals in the solution” value is “sterilization effect is not observed”. For the same molecule, the “activation energy in decomposition response, literature value” in data set [7] is 26.3 kcal/mol.

As for `[O]O` [hydroperoxy radicals (HOO.), hydroperoxy radicals], in data set [8], the “pKa (acid dissociation constant)” value is recorded as 4.8.
